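Cells were grown in 96-well plates and exposed to each compound for 48 hours at five concentrations; endpoints were interpolated linearly between bracketing concentrations, or set to the highest concentration if not reached. GI50: concentration for 50% inhibition of growth. TGI: concentration producing complete growth inhibition.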
Experiments:
Assay in all cases: growth of human tumour cells (NCI), 48 h
[1] = tested on: IGROV1 ovarian
[2] = tested on: MCF7 breast
[3] = tested on: UACC-62 melanoma
[4] = tested on: BT-549 breast
[5] = tested on: UO-31 renal
[6] = tested on: HOP-92 NSCLC
[7] = tested on: CCRF-CEM leukemia
[8] = tested on: HCC-2998 colon
[9] = tested on: NCI-H460 lung
[10] = tested on: HT29 colon
[11] = tested on: NCI-H522 lung
[12] = tested on: U251 CNS
[13] = tested on: T-47D breast
[14] = tested on: SNB-19 CNS
[15] = tested on: HCT-116 colon
[16] = tested on: HL-60(TB) leukemia
[17] = tested on: SF-268 CNS
[18] = tested on: RPMI-8226 leukemia
[19] = tested on: SW-620 colon
[20] = tested on: UACC-257 melanoma
[21] = tested on: MDA-MB-435
[22] = tested on: NCI-H226 lung
[23] = tested on: 786-0 renal
[24] = tested on: NCI-H23 lung
[25] = tested on: TK-10 renal
[26] = tested on: MALME-3M melanoma
[27] = tested on: MOLT-4 leukemia
[28] = tested on: HS 578T breast
[29] = tested on: OVCAR-4 ovarian
[30] = tested on: PC-3 prostate
[31] = tested on: K-562 leukemia
[32] = tested on: SF-295 CNS
[33] = tested on: COLO 205 colon
[34] = tested on: OVCAR-3 ovarian
[35] = tested on: LOX IMVI melanoma
[36] = tested on: SK-MEL-28 melanoma
[37] = tested on: EKVX NSCLC
[38] = tested on: SNB-75 CNS
[39] = tested on: KM12 colon
[40] = tested on: RXF 393 renal
[41] = tested on: SK-MEL-2 melanoma
[42] = tested on: NCI/ADR-RES ovarian
[43] = tested on: SN12C renal
[44] = tested on: SK-OV-3 ovarian
[45] = tested on: SK-MEL-5 melanoma
[46] = tested on: HCT-15 colon
[47] = tested on: ACHN renal
[48] = tested on: OVCAR-8 ovarian
[49] = tested on: DU-145 prostate
[50] = tested on: CAKI-1 renal
[51] = tested on: SF-539 CNS
[52] = tested on: M14 melanoma
[53] = tested on: A549 NSCLC
[54] = tested on: HOP-62 NSCLC
[55] = tested on: MDA-MB-231 breast
[56] = tested on: OVCAR-5 ovarian
[57] = tested on: A498 renal
[58] = tested on: SR leukemia

## COc1ccc(-c2n[nH]nc2-c2cc(OC)c3c(c2OC)OCO3)cc1
[1]
  GI50: 0.885 µM
  TGI: > 68 µM
[2]
  GI50: 0.48 µM
  TGI: 35.2 µM
[3]
  GI50: 0.553 µM
  TGI: 14 µM
[4]
  GI50: 0.544 µM
  TGI: 25.9 µM
[5]
  GI50: 3.83 µM
  TGI: 46.6 µM
[6]
  GI50: 0.685 µM
  TGI: 22.6 µM
[7]
  GI50: 0.565 µM
  TGI: > 100 µM
[8]
  GI50: 1.7 µM
  TGI: 19.3 µM
[9]
  GI50: 0.409 µM
  TGI: 15.9 µM
[10]
  GI50: 0.48 µM
  TGI: 13.7 µM
[11]
  GI50: 0.486 µM
  TGI: 3.67 µM
[12]
  GI50: 0.817 µM
  TGI: 11 µM
[13]
  GI50: 1.73 µM
  TGI: > 100 µM
[14]
  GI50: 3.82 µM
  TGI: > 100 µM
[15]
  GI50: 0.424 µM
  TGI: 19.2 µM
[16]
  GI50: 0.293 µM
  TGI: 0.975 µM
[17]
  GI50: 2.98 µM
  TGI: 54.3 µM
[18]
  GI50: 0.751 µM
  TGI: 37.7 µM
[19]
  GI50: 0.348 µM
  TGI: > 95.6 µM
[20]
  GI50: 2.8 µM
  TGI: > 100 µM
[21]
  GI50: 0.227 µM
  TGI: 0.761 µM
[22]
  GI50: 9.69 µM
  TGI: > 92.6 µM
[23]
  GI50: 3.07 µM
  TGI: 71.9 µM
[24]
  GI50: 1.25 µM
  TGI: 26.5 µM
[25]
  GI50: 4.85 µM
  TGI: 79.8 µM
[26]
  GI50: 1.34 µM
  TGI: > 100 µM
[27]
  GI50: 0.463 µM
  TGI: 33.1 µM
[28]
  GI50: 0.958 µM
  TGI: 15 µM
[29]
  GI50: 4.81 µM
  TGI: > 76.3 µM
[30]
  GI50: 1.87 µM
  TGI: > 100 µM
[31]
  GI50: 0.277 µM
  TGI: > 82.4 µM
[32]
  GI50: 0.658 µM
  TGI: 5.67 µM
[33]
  GI50: 1.19 µM
  TGI: 5.57 µM
[34]
  GI50: 0.378 µM
  TGI: 2.71 µM
[35]
  GI50: 0.746 µM
  TGI: 19 µM
[36]
  GI50: 1.95 µM
  TGI: > 100 µM
[37]
  GI50: 2.8 µM
  TGI: 39.7 µM
[38]
  GI50: 0.573 µM
  TGI: 3.96 µM
[39]
  GI50: 0.426 µM
  TGI: 44.7 µM
[40]
  GI50: 1.1 µM
  TGI: 5.37 µM
[41]
  GI50: 0.596 µM
  TGI: 11.4 µM
[42]
  GI50: 0.368 µM
[43]
  GI50: 4.86 µM
  TGI: 83.7 µM
[44]
  GI50: 1.27 µM
  TGI: 9.3 µM
[45]
  GI50: 0.684 µM
  TGI: 17.7 µM
[46]
  GI50: 0.546 µM
  TGI: > 100 µM
[47]
  GI50: 9.16 µM
  TGI: > 100 µM
[48]
  GI50: 2.02 µM
  TGI: > 69 µM
[49]
  GI50: 1.61 µM
  TGI: 13.6 µM
[50]
  GI50: 0.839 µM
  TGI: > 60.1 µM
[51]
  GI50: 1.32 µM
  TGI: 5.4 µM
[52]
  GI50: 0.433 µM
  TGI: 19.5 µM
[53]
  GI50: 0.7 µM
  TGI: > 58.8 µM
[54]
  GI50: 1.45 µM
  TGI: > 66.1 µM
[55]
  GI50: 1.71 µM
  TGI: 17.4 µM
[56]
  GI50: 4.68 µM
  TGI: > 100 µM
[57]
  GI50: 0.312 µM
  TGI: 6.38 µM
[58]
  GI50: 0.299 µM
  TGI: 22.6 µM

## N#C/C(=C\c1c(-c2ccccc2)[nH]c2ccccc12)S(=O)(=O)c1ccccc1
[1]
  GI50: 3.28 µM
  TGI: 25.9 µM
[2]
  GI50: 2.15 µM
  TGI: 18.4 µM
[3]
  GI50: 2.38 µM
  TGI: 24.9 µM
[4]
  GI50: 10 µM
  TGI: > 56.9 µM
[5]
  GI50: 6.54 µM
  TGI: > 61.7 µM
[6]
  GI50: 8.88 µM
  TGI: 69.8 µM
[7]
  GI50: 2.38 µM
  TGI: 18.4 µM
[8]
  GI50: 10.9 µM
  TGI: 34.3 µM
[9]
  GI50: 2.73 µM
  TGI: 18.3 µM
[10]
  GI50: 0.594 µM
  TGI: > 41.5 µM
[11]
  GI50: 4.51 µM
  TGI: 25.5 µM
[12]
  GI50: 2.49 µM
  TGI: 20.1 µM
[13]
  GI50: 3.82 µM
  TGI: 33.8 µM
[14]
  GI50: 7.08 µM
  TGI: > 88.2 µM
[15]
  GI50: 1.72 µM
  TGI: > 76.6 µM
[16]
  GI50: 1.27 µM
  TGI: 5.34 µM
[17]
  GI50: 3.4 µM
  TGI: 20.5 µM
[18]
  GI50: 0.557 µM
  TGI: 6.88 µM
[19]
  GI50: 0.544 µM
  TGI: 20.5 µM
[20]
  GI50: 17.9 µM
  TGI: 56.2 µM
[21]
  GI50: 0.287 µM
  TGI: 3.77 µM
[22]
  GI50: 4.06 µM
  TGI: 37.8 µM
[23]
  GI50: 8.46 µM
  TGI: > 100 µM
[24]
  GI50: 4.26 µM
  TGI: > 58.5 µM
[25]
  GI50: 5.08 µM
  TGI: > 54.3 µM
[26]
  GI50: 6.77 µM
  TGI: > 55.8 µM
[27]
  GI50: 1.68 µM
  TGI: > 100 µM
[28]
  GI50: 8.76 µM
  TGI: > 26.8 µM
[29]
  GI50: 5.47 µM
  TGI: > 100 µM
[30]
  GI50: 3.34 µM
  TGI: > 53.9 µM
[31]
  GI50: 0.346 µM
[32]
  GI50: 2.21 µM
  TGI: 14.6 µM
[33]
  GI50: 1.38 µM
  TGI: 17 µM
[34]
  GI50: 1.14 µM
  TGI: 4.41 µM
[35]
  GI50: 4.47 µM
  TGI: 25.5 µM
[36]
  GI50: 5.97 µM
  TGI: 28.8 µM
[37]
  GI50: 5.49 µM
  TGI: > 64.8 µM
[38]
  GI50: 1.67 µM
  TGI: 29.4 µM
[39]
  GI50: 0.625 µM
  TGI: 13.9 µM
[40]
  GI50: 3.43 µM
  TGI: > 27.4 µM
[41]
  GI50: 12.5 µM
  TGI: 45.3 µM
[42]
  GI50: 1.06 µM
  TGI: 43.4 µM
[43]
  GI50: 5.24 µM
  TGI: 71.8 µM
[44]
  GI50: 6.39 µM
  TGI: > 71.5 µM
[45]
  GI50: 1.82 µM
  TGI: 11.5 µM
[46]
  GI50: 1.07 µM
  TGI: 34.6 µM
[47]
  GI50: 6.65 µM
  TGI: 75 µM
[48]
  GI50: 5.82 µM
  TGI: > 78 µM
[49]
  GI50: 2.4 µM
  TGI: 20.1 µM
[50]
  GI50: 5.48 µM
  TGI: > 63 µM
[51]
  GI50: 2.48 µM
  TGI: 9.51 µM
[52]
  GI50: 2.66 µM
  TGI: 38.2 µM
[53]
  GI50: 3.74 µM
  TGI: > 100 µM
[54]
  GI50: 8.06 µM
  TGI: > 100 µM
[55]
  GI50: 3.55 µM
  TGI: 33.7 µM
[56]
  GI50: 18.2 µM
  TGI: 98.1 µM
[57]
  GI50: 7.6 µM
  TGI: > 58.7 µM
[58]
  GI50: 17.3 µM
  TGI: > 100 µM

Source: PubChem BioAssay (NCI)
